27 compounds from US7511145B2 (Genelabs Technologies, Inc., priority 2003, dated 2009) can be followed below.

The target in the assay is T1, HCV-NS5b (Hepatitis C virus genotype 1b, UniProt Q9WMX2).
T1 construct: (His)6 (C); made in house; host or cells: XL-1 cells (E. coli), IPTG-inducible plasmid, nickel-NTA purification
The assay is described as follows: HCV-NS5b enzyme assay (incorporation of radiolabeled UTP). Type of assay: biochemical. Conditions: for inhibition at 33 µM: enzyme inhibition at compound concentration of 33 uM; for inhibition at 100 µM: read-out: % inh@100, enzyme inhibition at compound concentration of 100 uM. The gist of the method:
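His6-tagged NS5b lacking the C-terminal 21 residues, expressed in XL-1 and Ni-NTA purified. Reaction at pH 7.5 with 5 mM MgCl2, 10 μM each NTP including [3H]-UTP and biotinylated HCV heteropolymeric template, 2 h at 37° C; SPA read-out; % inhibition at 100 and 33 uM versus no-compound control, background subtracted.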

For the compound `COc1ccc(-c2cccc(C(=O)O)c2)c(-c2ccc3cc(-c4nc5cc(C(=O)O)ccc5n4C4CCCCC4)ccc3n2)c1` [Compound 437, 2-[2-(3′-carboxy-4-methoxy-biphen-2-yl)-quinolin-6-yl]-1-cyclohexyl-1H-benzoimidazole-5-carboxylic acid], the inhibition at 33 µM was determined as 100% and the inhibition at 100 µM amounted to 101%.
Take `COc1ccc(-c2ccc(C)cc2)c(-c2ccc3cc(-c4nc5cc(C(=O)O)ccc5n4C4CCCCC4)ccc3n2)c1` [Compound 438, 1-cyclohexyl-2-[2-(4-methoxy-4′-methyl-biphen-2-yl)-quinolin-6-yl]-1H-benzoimidazole-5-carboxylic acid]: the inhibition at 33 µM was 98.7% and the inhibition at 100 µM was determined as 99.6%.
For `O=C(O)c1ccc2c(c1)nc(-c1ccc3nc(-c4cc([N+](=O)[O-])ccc4-c4ccc(Cl)cc4)ccc3c1)n2C1CCCCC1` [Compound 439, 2-[2-(4′-chloro-4-nitro-biphen-2-yl)-quinolin-6-yl]-1-cyclohexyl-1H-benzoimidazole-5-carboxylic acid], the inhibition at 33 µM was 99.2% and the inhibition at 100 µM was 97%.
The matching figures for `O=C(O)c1ccc2c(c1)nc(-c1ccc3nc(-c4ccccc4-c4ccc(Cl)cc4)c(-c4ccccc4)cc3c1)n2C1CCCCC1` [Compound 440, 2-[2-(4′-Chloro-biphen-2-yl)-3-phenyl-quinolin-6-yl]-1-cyclohexyl-1H-benzoimidazole-5-carboxylic acid]: 99.2% and 97.8%.
For `COc1ccc(-c2nc3ccc(-c4nc5cc(C(=O)O)ccc5n4C4CCCCC4)cc3nc2-c2ccc(OC)cc2)cc1` [Compound 441, 2-[2,3-Bis-(4-methoxyphenyl)quinoxalin-6-yl]-1-cyclohexyl-1H-benzimidazole-5-carboxylic acid], in that order: 97.3% and 98.8%.
As to `O=C(O)c1ccc2c(c1)nc(-c1ccc3nc(-c4cnccn4)ccc3c1)n2C1CCCCC1` [Compound 442, 1-cyclohexyl-2-(2-pyrazin-2-yl-quinolin-6-yl)-1H-benzoimidazole-5-carboxylic acid], the inhibition at 33 µM is 92.5% and the inhibition at 100 µM amounted to 98.2%.
The matching figures for `O=C(O)c1ccc2c(c1)nc(-c1ccc3nc(-c4ccncc4)ccc3c1)n2C1CCCCC1` [Compound 443, 1-cyclohexyl-2-(2-pyridin-4-yl-quinolin-6-yl)-1H-benzoimidazole-5-carboxylic acid]: 87% and 98.7%.
Turning to `Cc1ccc2cc(-c3ccc4cc(-c5nc6cc(C(=O)O)ccc6n5C5CCCCC5)ccc4n3)ccc2c1` [Compound 444, 1-cyclohexyl-2-[2-(6-methyl-naphthalen-2-yl)-quinolin-6-yl]-1H-benzoimidazole-5-carboxylic acid], the inhibition at 33 µM came to 99.5% and the inhibition at 100 µM worked out at 101%.
For `COCCOc1cccc(-c2ccc3cc(-c4nc5cc(C(=O)O)ccc5n4C4CCCCC4)ccc3n2)c1` [Compound 445, 1-Cyclohexyl-2-{2-[3-(2-methoxy-ethoxy)-phenyl]-quinolin-6-yl}-1H-benzoimidazole-5-carboxylic acid], in that order: 96.9% and 99.6%.
For `O=C(O)c1ccc2c(c1)nc(-c1ccc3nc(-c4ccccc4[N+](=O)[O-])ccc3c1)n2C1CCCCC1` [Compound 446], the inhibition at 33 µM was 96.6% and the inhibition at 100 µM was 101%.
For `O=C(O)c1ccc2c(c1)nc(-c1ccc3nc(-c4cc(OCCCN5CCCC5)ccc4-c4ccc(Cl)cc4)ccc3c1)n2C1CCCCC1` [Compound 447, 2-{2-[4′-Chloro-4-(3-pyrrolidin-1-yl-propoxy)-biphen-2-yl]-quinolin-6-yl}-1-cyclohexyl-1H-benzoimidazole-5-carboxylic acid], in that order: 97.8% and 94.9%.
For `Cc1oc2ccc(OCc3ccccc3)cc2c1-c1ccc2cc(-c3nc4cc(C(=O)O)ccc4n3C3CCCCC3)ccc2n1` [Compound 448, 2-[2-(5-benzyloxy-2-methyl-benzofuran-3-yl)-quinolin-6-yl]-1-cyclohexyl-1H-benzoimidazole-5-carboxylic acid], in that order: 94.6% and 96%.
For `O=C(O)c1ccc2c(c1)nc(-c1ccc3nc(-c4cnn(-c5ccccc5)c4)ccc3c1)n2C1CCCCC1` [Compound 449, 1-cyclohexyl-2-[2-(1-phenyl-1H-pyrazol-4-yl)-quinolin-6-yl]-1H-benzoimidazole-5-carboxylic acid], in that order: 99.8% and 101%.
For `O=C(O)c1ccc2c(c1)nc(-c1ccc3nc(-c4ccc[nH]4)ccc3c1)n2C1CCCCC1` [Compound 450, 1-Cyclohexyl-2-[2-(1H-pyrrol-2-yl)-quinolin-6-yl]-1H-benzoimidazole-5-carboxylic acid], the inhibition at 33 µM was 96.5% and the inhibition at 100 µM was 99.7%.
Take `O=C(O)c1ccc2c(c1)nc(-c1ccc3nc(-c4ccccc4)cc(NCCCn4ccnc4)c3c1)n2C1CCCCC1` [Compound 451, 1-cyclohexyl-2-[4-(3-imidazol-1-yl-propylamino)-2-phenyl-quinolin-6-yl]-1H-benzoimidazole-5-carboxylic acid]: the inhibition at 33 µM is 76.3% and the inhibition at 100 µM amounted to 95.6%.
For `COc1cc(O)c(-c2ccc3cc(-c4nc5cc(C(=O)O)ccc5n4C4CCCCC4)ccc3n2)c(OC)c1` [Compound 452, 1-cyclohexyl-2-[2-(2-hydroxy-4,6-dimethoxy-phenyl)-quinolin-6-yl]-1H-benzoimidazole-5-carboxylic acid], in that order: 102% and 102%.
For `COc1ccc(-c2ccco2)c(-c2ccc3cc(-c4nc5cc(C(=O)O)ccc5n4C4CCCCC4)ccc3n2)c1` [Compound 454, 1-cyclohexyl-2-[2-(2-furan-2-yl-5-methoxy-phenyl)-quinolin-6-yl]-1H-benzoimidazole-5-carboxylic acid], in that order: 98.3% and 101%.
The matching figures for `COc1ccc(-c2ccc(F)cc2)c(-c2ccc3cc(-c4nc5cc(C(=O)O)ccc5n4C4CCCCC4)ccc3n2)c1` [Compound 455, 1-Cyclohexyl-2-[2-(4′-fluoro-4-methoxy-biphen-2-yl)-quinolin-6-yl]-1H-benzoimidazole-5-carboxylic acid]: 100% and 99.8%.
With `CCOc1ccc(-c2ccc(OC)cc2-c2ccc3cc(-c4nc5cc(C(=O)O)ccc5n4C4CCCCC4)ccc3n2)cc1` [Compound 456, 1-cyclohexyl-2-[2-(4′-ethoxy-4-methoxy-biphen-2-yl)-quinolin-6-yl]-1H-benzoimidazole-5-carboxylic acid], the inhibition at 33 µM was found to be 100% and the inhibition at 100 µM stood at 99.7%.
The matching figures for `O=C(O)c1ccc2c(c1)nc(-c1ccc3nc(C(c4ccccc4)c4ccccc4)ccc3c1)n2C1CCCCC1` [Compound 457, 2-(2-benzhydryl-quinolin-6-yl)-1-cyclohexyl-1H-benzoimidazole-5-carboxylic acid]: 98.2% and 98.3%.
As to `CN(C)c1ccc(-c2nc3ccc(-c4nc5cc(C(=O)O)ccc5n4C4CCCCC4)cc3nc2-c2ccc(N(C)C)cc2)cc1` [Compound 458, 2-[2,3-Bis-(4-dimethylaminotphenyl)quinoxalin-6-yl]-1-cyclohexyl-1H-benzimidazole-5-carboxylic acid], the inhibition at 33 µM was found to be 100% and the inhibition at 100 µM was 104%.
For `O=C(O)c1ccc2c(c1)nc(-c1ccc3nc(-c4ccc5c(c4)CCCC5)ccc3c1)n2C1CCCCC1` [Compound 459, 1-cyclohexyl-2-[2-(5,6,7,8-tetrahydro-naphthalen-2-yl)-quinolin-6-yl]-1H-benzoimidazole-5-carboxylic acid], in that order: 99.5% and 99.8%.
The matching figures for `O=C(O)c1ccc2c(c1)nc(-c1ccc3nc(-c4c(O)ccc5ccccc45)ccc3c1)n2C1CCCCC1` [Compound 460, 1-cyclohexyl-2-[2-(2-hydroxy-naphthalen-1-yl)-quinolin-6-yl]-1H-benzoimidazole-5-carboxylic acid]: 101% and 102%.
The matching figures for `COCCOc1ccc(-c2ccccc2)c(-c2ccc3cc(-c4nc5cc(C(=O)O)ccc5n4C4CCCCC4)ccc3n2)c1` [Compound 461, 1-Cyclohexyl-2-{2-[4-(2-methoxy-ethoxy)-biphen-2-yl]-quinolin-6-yl}-1H-benzoimidazole-5-carboxylic acid]: 97.9% and 96.7%.
With `Cc1c(OCc2ccccc2)ccc(-c2ccc3cc(-c4nc5cc(C(=O)O)ccc5n4C4CCCCC4)ccc3n2)c1O` [Compound 462, 2-[2-(4-benzyloxy-2-hydroxy-3-methyl-phenyl)-quinolin-6-yl]-1-cyclohexyl-1H-benzoimidazole-5-carboxylic acid], the inhibition at 33 µM is 98.2% and the inhibition at 100 µM worked out at 101%.
With `Cn1c2ccc(Cl)cc2c2cc(-c3ccc4cc(-c5nc6cc(C(=O)O)ccc6n5C5CCCCC5)ccc4n3)ccc21` [Compound 463, 2-[2-(6-chloro-9-methyl-9H-carbazol-3-yl)-quinolin-6-yl]-1-cyclohexyl-1H-benzoimidazole-5-carboxylic acid], the inhibition at 33 µM worked out at 96% and the inhibition at 100 µM stood at 97.2%.
The matching figures for `Cc1nn(-c2ccccc2)c(C)c1-c1ccc2cc(-c3nc4cc(C(=O)O)ccc4n3C3CCCCC3)ccc2n1` [Compound 464, 1-cyclohexyl-2-[2-(3,5-dimethyl-1-phenyl-1H-pyrazol-4-yl)-quinolin-6-yl]-1H-benzoimidazole-5-carboxylic acid]: 99.7% and 100%.
